A melting point compilation (Tetko et al.)

SMILES | melting point [°C]
FC(F)(F)c1cccc(C(c2ccccc2)(c2ccccc2)n2cncn2)c1 | 132
c1ccc2nn(C3CCCCC3)nc2c1 | 46.5
CNCC(=O)O | 208
CSc1ccc(CO)cc1 | 42
Cc1cc(Cl)c2ccccc2n1 | 39 to 41
c1ccc(C2=NCCN=C2c2ccccc2)cc1 | 160 to 163
COc1ccc(C=NN=C2NC(=O)C(=Cc3ccccc3)S2)cc1 | 255 to 257
Clc1cncc(Br)c1 | 80
C#Cc1ccc(F)cc1 | 28
O=C(O)[C@H](Cc1ccccc1)NC(=O)C(F)(F)F | 126 to 127
O=C(O)C=Cc1ccccc1Cl | 209 to 212
CC1(c2ccccc2)OC(C(=O)O)=CC1=O (centres undefined) | 176
Cc1ccc(Nc2ccc([N+](=O)[O-])cc2N)cc1 | 160
OCc1ccc2ncccc2c1 | 79 to 80
O=S(=O)(Cl)Cc1cccc(Br)c1 | 88 to 89
O=C(O)Cc1ccc([N+](=O)[O-])cc1[N+](=O)[O-] | 180
CC(C(=O)O)c1ccc(CBr)cc1 (centres undefined) | 123 to 128
Clc1ccc(Nc2ncnc3c2cnn3-c2ccccc2)cc1 | 218 to 220
CC(C)(C)OC(=O)N1CCC(OCC(=O)NC2CC2)CC1 | 86
O=S1(=O)OC2(c3ccccc31)c1ccc(O)c(O)c1Oc1c2ccc(O)c1O | 300
CCCCCCCC(=O)CC | 2.5
CCCc1ccccc1/C=N/Nc1ccc([N+](=O)[O-])cc1[N+](=O)[O-] | 228
COC(=O)c1cc2ccccc2n1C(=O)OC(C)(C)C | 66 to 67
O=C(O)C(=O)CBr | 79 to 82
Cc1ccccc1/C=C(\C#N)c1nc2ccccc2n1C | 269

SMILES | melting point [°C]
Cc1ccc2c(c1[N+](=O)[O-])C(=O)c1c(Cl)c(Cl)c(Cl)c(Cl)c1C2=O | 262
CC(=O)N(Nc1ccccc1)c1ccc(-c2ccc(N(Nc3ccccc3)C(C)=O)cc2)cc1 | 235
O=[N+]([O-])c1ccc(S(=O)(=O)OCc2ccccc2OS(=O)(=O)c2ccc([N+](=O)[O-])cc2)cc1 | 204 to 206
NC1C2CCC(C2)C1C(=O)O (centres undefined) | 275 to 278
O=C(O)c1cc(-c2ccco2)[nH]n1 | 220
CCOC(=O)C(C#N)=Cc1ccc(-c2ccccc2Br)o1 | 123 to 124
O=C(O)[C@@H]1CCCC[C@H]1C(=O)c1cccs1 (relative stereo) | 179 to 184
CC(=O)c1ccc(OCc2ccc(F)cc2)c([N+](=O)[O-])c1 | 105 to 107
CC(C(=O)O)c1ccc(C(=O)c2cccs2)cc1 (centres undefined) | 124
Cc1c(-c2ccccc2)oc(-c2ccccc2)c(C)c1=O | 144
O=S(=O)(Cl)Cc1cccc(F)c1 | 39 to 41
Cc1cc([N+](=O)[O-])ccc1O | 96
OCc1ccc(CN2CCOCC2)cc1 | 94
Nc1ccccc1/C=C/c1cc(/C=C/c2cccc([N+](=O)[O-])c2)c([N+](=O)[O-])cc1[N+](=O)[O-] | 250
O=Nc1ccc2c(O)ccc(N=O)c2c1O | 250
N#Cc1ccc(N)c(Cl)c1 | 101
Nc1ccc(Br)nn1 | 194
Cc1ccc(F)c(C=O)c1Cl | 46 to 50
CC1Cc2ccccc2N1NC(=O)c1ccc(Cl)c(S(N)(=O)=O)c1 (centres undefined) | 161
CC12CC(=O)C3C(CCC4=CC(=O)CCC43C)C1CCC2=O (centres undefined) | 222
O=S(=O)(Cl)c1c(Cl)sc(Cl)c1Br | 69
COC(=O)c1ccc2snnc2c1 | 118 to 120
CCCCCOc1ccc(/N=N/c2ccc(CCCC)cc2)cc1Cl | 41.5
OCC1Cc2ccccc2N1 (centres undefined) | 49 to 58
